In patent US20070149576A1, “Means for protecting against technical materials” (priority 2003, published 2007):

How the values were obtained:
[1] = tested on: Hylotrupes bajulus (house longhorn beetle); assay: EN 46 determination of the prophylactic effect on egg larvae of Hylotrupes bajulus (laboratory test); format: in vivo; conditions: for activity threshold against wood-destroying beetles, EN 46 (with EN 84): after EN 84 leaching stress
[2] = tested on: Reticulitermes santonensis (termite); assay: EN 117 determination of the activity threshold against Reticulitermes santonensis (laboratory test); format: in vivo; conditions: for activity threshold against termites, EN 117 (with EN 84): after EN 84 leaching stress

Row | Compound | activity threshold against wood-destroying beetles, EN 46 (with EN 84) [1] [g/m^2] | activity threshold against wood-destroying beetles, EN 46 (without stress) [1] [g/m^2] | activity threshold against termites, EN 117 (with EN 84) [2] | activity threshold against termites, EN 117 (without stress) ([2]; without stress)
1 | CCOC(=O)NCCOc1ccc(Oc2ccccc2)cc1 [fenoxycarb] | 0.050 | 0.005 | ineffective | ineffective
2 | CC1(C)C(C=C(Cl)Cl)C1C(=O)OC(C#N)c1ccc(F)c(Oc2ccccc2)c1 (stereo not shown) [cyfluthrin] | <0.006 | <0.006 | 10-20 g/m^3 | –
